According to ChEMBL document CHEMBL2429832, “N-substituted 8-aminopentacyclo[5.4.0.0(2,6).0(3,10).0(5,9)]undecanes as σ receptor ligands with potential neuroprotective effects” (Bioorg Med Chem, 2013):

Experiments:
[1] = target: T1, Alpha-2B adrenergic receptor (Homo sapiens) (UniProt P18089); assay: Inhibition of adrenergic alpha2B receptor (unknown origin) at 10 uM by PDSP assay relative to control
T1 sequence (whole entry): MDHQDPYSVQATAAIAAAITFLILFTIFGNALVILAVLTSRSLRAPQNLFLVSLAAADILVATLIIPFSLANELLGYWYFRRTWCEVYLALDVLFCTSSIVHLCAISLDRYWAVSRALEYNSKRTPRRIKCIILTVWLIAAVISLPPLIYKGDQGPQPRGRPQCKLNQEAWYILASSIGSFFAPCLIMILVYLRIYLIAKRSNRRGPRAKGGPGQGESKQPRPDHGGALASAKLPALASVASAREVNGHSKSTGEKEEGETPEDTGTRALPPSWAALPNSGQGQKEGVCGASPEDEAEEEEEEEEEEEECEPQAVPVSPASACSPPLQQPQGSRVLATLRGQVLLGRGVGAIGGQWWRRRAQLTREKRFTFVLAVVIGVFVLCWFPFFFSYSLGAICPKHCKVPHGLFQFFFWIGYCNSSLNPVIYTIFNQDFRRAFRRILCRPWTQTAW

[2] = target: T2, Muscarinic acetylcholine receptor M5 (Homo sapiens) (UniProt P08912); assay: Inhibition of muscarinic M5 receptor (unknown origin) at 10 uM by PDSP assay relative to control
T2 sequence (whole entry): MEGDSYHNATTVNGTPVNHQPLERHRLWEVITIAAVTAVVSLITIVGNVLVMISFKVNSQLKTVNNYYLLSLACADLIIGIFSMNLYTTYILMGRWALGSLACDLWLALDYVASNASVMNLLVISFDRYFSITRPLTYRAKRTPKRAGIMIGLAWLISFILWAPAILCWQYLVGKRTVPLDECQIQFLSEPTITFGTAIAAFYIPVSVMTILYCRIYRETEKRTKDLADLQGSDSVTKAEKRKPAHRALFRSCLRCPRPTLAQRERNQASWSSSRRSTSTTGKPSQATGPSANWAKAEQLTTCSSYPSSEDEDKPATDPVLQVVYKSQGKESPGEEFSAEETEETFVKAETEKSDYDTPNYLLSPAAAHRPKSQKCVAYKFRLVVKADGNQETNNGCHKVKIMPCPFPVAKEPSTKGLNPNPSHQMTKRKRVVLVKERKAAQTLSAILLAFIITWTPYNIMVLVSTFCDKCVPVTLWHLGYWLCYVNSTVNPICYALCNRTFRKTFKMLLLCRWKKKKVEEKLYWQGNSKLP

[3] = target: T3, Alpha-2C adrenergic receptor (Homo sapiens, UniProt P18825); assay: Inhibition of adrenergic alpha2C receptor (unknown origin) by PDSP assay
T3 sequence (P18825 whole entry): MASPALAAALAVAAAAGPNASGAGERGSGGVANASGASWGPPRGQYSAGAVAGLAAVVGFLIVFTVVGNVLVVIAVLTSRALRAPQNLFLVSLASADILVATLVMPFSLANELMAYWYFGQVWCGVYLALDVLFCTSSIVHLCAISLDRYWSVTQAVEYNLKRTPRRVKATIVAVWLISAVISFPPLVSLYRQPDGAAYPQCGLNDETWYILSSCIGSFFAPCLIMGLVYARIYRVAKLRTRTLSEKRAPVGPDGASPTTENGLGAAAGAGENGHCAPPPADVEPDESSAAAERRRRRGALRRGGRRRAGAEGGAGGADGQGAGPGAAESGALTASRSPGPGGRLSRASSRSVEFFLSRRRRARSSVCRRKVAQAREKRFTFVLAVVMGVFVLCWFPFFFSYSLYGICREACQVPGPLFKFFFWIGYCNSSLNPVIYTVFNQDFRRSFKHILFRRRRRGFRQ

[4] = target: T4, Alpha-2A adrenergic receptor (Homo sapiens) (UniProt P08913); assay: Inhibition of adrenergic alpha2A receptor (unknown origin) at 10 uM by PDSP assay relative to control
T4 sequence (whole entry): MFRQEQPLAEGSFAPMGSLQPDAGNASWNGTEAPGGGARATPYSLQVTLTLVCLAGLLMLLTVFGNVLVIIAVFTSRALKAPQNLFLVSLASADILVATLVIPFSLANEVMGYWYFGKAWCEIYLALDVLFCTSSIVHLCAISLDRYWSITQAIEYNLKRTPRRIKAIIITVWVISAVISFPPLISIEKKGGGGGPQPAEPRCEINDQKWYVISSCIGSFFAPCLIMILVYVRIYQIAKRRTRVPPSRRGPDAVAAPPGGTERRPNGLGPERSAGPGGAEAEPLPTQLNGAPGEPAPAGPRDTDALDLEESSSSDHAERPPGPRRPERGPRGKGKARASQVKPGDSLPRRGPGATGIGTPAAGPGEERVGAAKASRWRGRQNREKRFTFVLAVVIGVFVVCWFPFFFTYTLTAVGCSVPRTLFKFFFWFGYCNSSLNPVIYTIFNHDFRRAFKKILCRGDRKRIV

[5] = target: 5-hydroxytryptamine receptor 2A (Homo sapiens, UniProt P28223); assay: Inhibition of 5-HT2A receptor (unknown origin) at 10 uM by PDSP assay relative to control
[6] = target: T5, Muscarinic acetylcholine receptor M2 (Homo sapiens, UniProt P08172); assay: Inhibition of muscarinic M2 receptor (unknown origin) by PDSP assay
T5 sequence (P08172 whole entry): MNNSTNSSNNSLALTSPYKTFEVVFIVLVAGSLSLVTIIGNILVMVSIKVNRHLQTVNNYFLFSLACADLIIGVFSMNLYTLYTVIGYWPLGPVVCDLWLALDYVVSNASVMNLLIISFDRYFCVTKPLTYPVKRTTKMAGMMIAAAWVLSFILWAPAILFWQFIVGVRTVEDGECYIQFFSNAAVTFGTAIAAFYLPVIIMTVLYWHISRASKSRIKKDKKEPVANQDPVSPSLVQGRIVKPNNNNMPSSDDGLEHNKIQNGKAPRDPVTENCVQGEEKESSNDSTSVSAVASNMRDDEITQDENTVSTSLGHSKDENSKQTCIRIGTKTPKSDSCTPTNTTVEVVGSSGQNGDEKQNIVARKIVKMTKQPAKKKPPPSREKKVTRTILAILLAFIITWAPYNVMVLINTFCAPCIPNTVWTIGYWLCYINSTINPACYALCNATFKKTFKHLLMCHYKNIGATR

Histamine H2 receptor = Histamine H2 receptor (Homo sapiens, UniProt P25021); assay: Inhibition of histamine H2 receptor (unknown origin) at 10 uM by PDSP assay relative to control
Sequence of Histamine H2 receptor (P25021 whole entry): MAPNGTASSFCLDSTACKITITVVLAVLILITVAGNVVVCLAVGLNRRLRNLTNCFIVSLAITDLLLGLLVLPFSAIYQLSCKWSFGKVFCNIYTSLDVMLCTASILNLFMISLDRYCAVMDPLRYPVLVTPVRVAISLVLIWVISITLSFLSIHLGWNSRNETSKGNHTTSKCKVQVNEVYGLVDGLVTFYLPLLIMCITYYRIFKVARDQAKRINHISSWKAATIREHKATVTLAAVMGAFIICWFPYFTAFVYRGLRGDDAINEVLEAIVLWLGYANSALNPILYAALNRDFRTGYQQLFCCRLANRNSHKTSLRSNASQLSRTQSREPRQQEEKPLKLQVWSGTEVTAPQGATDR

Sequence of 5-hydroxytryptamine receptor 2A (P28223 whole entry): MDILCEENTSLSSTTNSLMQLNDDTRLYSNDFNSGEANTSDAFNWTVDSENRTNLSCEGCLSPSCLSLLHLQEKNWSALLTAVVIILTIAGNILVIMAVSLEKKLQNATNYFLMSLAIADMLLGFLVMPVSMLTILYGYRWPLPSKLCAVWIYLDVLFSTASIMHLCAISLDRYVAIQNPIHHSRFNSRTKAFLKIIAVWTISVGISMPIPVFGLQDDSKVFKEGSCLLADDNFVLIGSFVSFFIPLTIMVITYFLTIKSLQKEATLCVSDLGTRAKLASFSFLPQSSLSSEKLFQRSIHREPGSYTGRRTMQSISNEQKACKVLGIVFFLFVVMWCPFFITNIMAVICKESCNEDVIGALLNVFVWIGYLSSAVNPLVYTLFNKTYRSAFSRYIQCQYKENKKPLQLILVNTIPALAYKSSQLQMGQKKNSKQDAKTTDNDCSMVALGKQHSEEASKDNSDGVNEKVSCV

| SMILES | inhibition [1] [%] | inhibition [2] [%] | Ki [3] [µM] | inhibition [4] [%] | inhibition [5] [%] | Ki [6] [µM] | inhibition (Histamine H2 receptor) [%] |
| --- | --- | --- | --- | --- | --- | --- | --- |
| COc1ccc(CN(C)[C@H]2C3C4CC5C6C4CC3C6C52)cc1OC (stereo partly drawn) | < 50 | < 50 | 0.993 | < 50 | < 50 |  |  |
| CN(Cc1ccccc1)[C@H]1C2C3CC4C2C(=O)C2C4C3C21 (stereo partly drawn) | < 50 |  |  | < 50 | < 50 | 0.474 | < 50 |
| COc1cc(CN(C)[C@H]2C3C4CC5C6C4CC3C6C52)cc(OC)c1OC (stereo partly drawn) | < 50 | < 50 | 2.52 | < 50 | < 50 |  | < 50 |
| CN(CCc1cccc(F)c1)[C@H]1C2C3CC4C2C(=O)C2C4C3C21 (stereo partly drawn) | < 50 |  | 4.74 | < 50 | < 50 | 2.29 | < 50 |
| CN(CCCc1cccc(F)c1)[C@H]1C2C3CC4C2C(=O)C2C4C3C21 (stereo partly drawn) | < 50 |  | 2.79 |  | < 50 | 0.487 | < 50 |
| CN(CCCc1cccc(F)c1)[C@H]1C2C3CC4C5C3CC2C5C41 (stereo partly drawn) | < 50 | < 50 | 3.73 | < 50 |  |  | < 50 |
| CN(Cc1ccccc1)[C@H]1C2C3CC4C5C3CC2C5C41 (stereo partly drawn) | < 50 | < 50 |  | < 50 |  |  |  |
| COc1ccc(CN(C)[C@H]2C3C4CC5C3C(=O)C3C5C4C32)cc1OC (stereo partly drawn) | < 50 | < 50 |  |  | < 50 |  | < 50 |
| CN(CCc1ccccc1)[C@H]1C2C3CC4C5C3CC2C5C41 (stereo partly drawn) |  | < 50 | 0.865 | < 50 |  |  |  |
| c1ccc(CCN[C@H]2C3C4CC5C6C4CC3C6C52)cc1 (stereo partly drawn) |  |  |  |  |  | 1.03 |  |
| CN(Cc1cccnc1)[C@H]1C2C3CC4C2C(=O)C2C4C3C21 (stereo partly drawn) | < 50 | < 50 |  | < 50 | < 50 | 8.85 | < 50 |
| CN(CCc1ccccn1)[C@H]1C2C3CC4C2C(=O)C2C4C3C21 (stereo partly drawn) |  | < 50 |  | < 50 | < 50 | > 10 | < 50 |
| CN(CCc1ccccc1)[C@H]1C2C3CC4C2C(=O)C2C4C3C21 (stereo partly drawn) | < 50 |  | 3.98 | < 50 | < 50 | 1.94 |  |
| CN(Cc1cccc(F)c1)[C@H]1C2C3CC4C2C(=O)C2C4C3C21 (stereo partly drawn) | < 50 | < 50 | 5.05 | < 50 | < 50 | 1.73 | < 50 |
| CN(Cc1ccc2c(c1)OCO2)[C@H]1C2C3CC4C5C3CC2C5C41 (stereo partly drawn) | < 50 | < 50 |  | < 50 | < 50 |  |  |

Results, then the compound that gave them:

| inhibition [1] [%] | inhibition [2] [%] | Ki [3] [µM] | inhibition [4] [%] | inhibition [5] [%] | Ki [6] [µM] | inhibition (Histamine H2 receptor) [%] | SMILES |
| --- | --- | --- | --- | --- | --- | --- | --- |
| < 50 | < 50 |  | < 50 | < 50 | 3.55 | < 50 | CN(CCc1ccccn1)[C@H]1C2C3CC4C5C3CC2C5C41 (stereo partly drawn) |
|  |  | 1.51 | < 50 | < 50 | 1.01 | < 50 | C1CCC(CN[C@H]2C3C4CC5C6C4CC3C6C52)CC1 (stereo partly drawn) |
|  |  | 0.683 | < 50 | < 50 | 0.195 |  | C1C2C3CC4C2C2C1C3[C@H](NCC13C5C6C7C5C1C7C63)C42 (stereo partly drawn) |
| < 50 | < 50 |  | < 50 | < 50 | > 10 | < 50 | CN(Cc1cccnc1)[C@H]1C2C3CC4C5C3CC2C5C41 (stereo partly drawn) |
|  | < 50 |  |  | < 50 |  |  | COc1ccc(CN[C@H]2C3C4CC5C6C4CC3C6C52)cc1OC (stereo partly drawn) |
|  |  |  | < 50 | < 50 | 2.79 | < 50 | c1ccc(CCN[C@H]2C3C4CC5C6C4CC3C6C52)nc1 (stereo partly drawn) |
| < 50 | < 50 |  | < 50 | < 50 |  | < 50 | CN(CC1CCCCC1)[C@H]1C2C3CC4C5C3CC2C5C41 (stereo partly drawn) |
|  | < 50 |  | < 50 | < 50 |  |  | c1ccc(CN[C@H]2C3C4CC5C6C4CC3C6C52)cc1 (stereo partly drawn) |
|  | < 50 | 3.08 | < 50 | < 50 | 4.41 |  | c1cc2c(cc1CN[C@H]1C3C4CC5C6C4CC3C6C51)OCO2 (stereo partly drawn) |
|  | < 50 | 2.28 | < 50 |  |  |  | COc1cc(CN[C@H]2C3C4CC5C6C4CC3C6C52)cc(OC)c1OC (stereo partly drawn) |
